Assay results: PMC6544300, “Mechanism of the efflux transport of demethoxycurcumin-O-glucuronides in HeLa cells stably transfected with UDP-glucuronosyltransferase 1A1” (PLoS ONE, 2019)
pIC50: −log10 of the molar value.

How the values were obtained:
MRP1 = biological target: T1, MRP1 (Homo sapiens, UniProt P33527); test: shRNA-mediated MRP1 knock-down, glucuronide excretion in HeLa1A1 cells; format: cell-based; settings: DMC 4 μM; for decrease of efflux excretion rate / decrease of metabolized fraction: MRP1 knock-down; for decrease of efflux excretion rate: Fig 9C; for decrease of metabolized fraction: Fig 9E; for increase in intracellular level: MRP1 silencing, Fig 9D
T1 construct: BCRP, MRP1, MRP3, and MRP4 were detected in both wild-type HeLa and HeLa1A1 cells; endogenous in cells; host or cells: HeLa1A1 cells (MRP1-shRNA versus scrambled shRNA)
T1 sequence (P33527 whole entry): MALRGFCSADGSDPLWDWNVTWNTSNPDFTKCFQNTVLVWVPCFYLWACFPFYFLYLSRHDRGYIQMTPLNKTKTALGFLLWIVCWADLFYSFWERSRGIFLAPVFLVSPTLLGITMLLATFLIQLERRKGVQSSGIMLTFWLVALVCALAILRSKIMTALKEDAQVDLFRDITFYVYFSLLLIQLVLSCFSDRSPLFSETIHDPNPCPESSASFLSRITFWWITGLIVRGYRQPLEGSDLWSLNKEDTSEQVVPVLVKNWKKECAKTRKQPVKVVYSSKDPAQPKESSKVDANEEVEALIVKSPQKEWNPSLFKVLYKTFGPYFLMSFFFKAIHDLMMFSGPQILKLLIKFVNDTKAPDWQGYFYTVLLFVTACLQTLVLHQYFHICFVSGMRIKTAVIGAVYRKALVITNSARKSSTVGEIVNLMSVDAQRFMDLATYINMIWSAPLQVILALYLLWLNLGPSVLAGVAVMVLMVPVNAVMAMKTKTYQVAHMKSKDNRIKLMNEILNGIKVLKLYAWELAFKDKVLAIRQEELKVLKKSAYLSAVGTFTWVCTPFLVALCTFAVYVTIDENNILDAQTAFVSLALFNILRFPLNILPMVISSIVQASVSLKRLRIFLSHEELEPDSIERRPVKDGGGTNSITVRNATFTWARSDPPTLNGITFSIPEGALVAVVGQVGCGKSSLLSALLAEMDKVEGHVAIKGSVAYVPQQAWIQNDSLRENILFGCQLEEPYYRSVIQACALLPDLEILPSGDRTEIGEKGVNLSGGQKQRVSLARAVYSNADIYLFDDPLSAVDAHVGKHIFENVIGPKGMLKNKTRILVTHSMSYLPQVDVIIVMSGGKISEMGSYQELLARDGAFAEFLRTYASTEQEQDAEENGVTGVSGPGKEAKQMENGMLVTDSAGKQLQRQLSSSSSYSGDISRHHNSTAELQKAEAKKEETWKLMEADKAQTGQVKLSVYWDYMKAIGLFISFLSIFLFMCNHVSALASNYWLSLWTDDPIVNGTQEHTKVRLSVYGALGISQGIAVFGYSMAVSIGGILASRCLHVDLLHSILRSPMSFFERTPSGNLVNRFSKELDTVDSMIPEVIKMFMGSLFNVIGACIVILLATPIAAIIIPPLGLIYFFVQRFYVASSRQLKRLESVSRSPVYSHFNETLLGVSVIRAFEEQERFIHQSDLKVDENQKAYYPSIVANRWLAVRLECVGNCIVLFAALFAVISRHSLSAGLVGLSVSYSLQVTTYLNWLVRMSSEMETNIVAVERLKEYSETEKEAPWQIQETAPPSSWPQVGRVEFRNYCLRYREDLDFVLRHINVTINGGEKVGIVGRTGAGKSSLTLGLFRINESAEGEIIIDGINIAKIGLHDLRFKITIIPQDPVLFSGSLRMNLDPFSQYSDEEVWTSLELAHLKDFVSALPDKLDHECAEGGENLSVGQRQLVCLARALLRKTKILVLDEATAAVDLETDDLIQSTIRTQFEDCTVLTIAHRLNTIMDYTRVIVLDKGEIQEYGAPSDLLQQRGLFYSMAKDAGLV
Protocol: (§1) Prior to the assays, HeLa1A1 cells were washed twice with prewarmed (37°C) Hank’s balanced salt solution (HBSS, pH = 7.4). Subsequently, HeLa1A1 cells were pretreated and incubated with DMC (2, 4 or 8 μM) and dissolved in 2 mL of HBSS. The sampling times were selected to ensure that the plots of the amount excreted versus time remained in the linear range. At each time point (0.5, 1.0, 1.5 and 2.0 h), 200 μL of incubation solutions were collected from each well, and an equal volume of loading media was used to replenish each well. Then, the collected samples were each mixed with 100 μL of ice-cold acetonitrile. The supernatants (8.0 μL) were subjected to an ultra high-performance liquid chromatography (UHPLC) analysis after centrifugation (10 min at 13,800 g).
(§2) Furthermore, the excretion rates of generated glucuronides were calculated using Eq (1). In addition, the fraction metabolized (fmet) value was defined as the fraction of the dose metabolized based on Eq (2). V represents the volume of the incubation medium, C represents the concentration of excreted glucuronides, and t represents the incubation time.
(§3) The shRNA plasmids targeting the efflux transporters BCRP, MRP1, MRP3 and MRP4 were constructed using previously described methods. HeLa1A1 cells were transiently transfected with the corresponding shRNA plasmids. The procedures for the establishment of HeLa1A1-BCRP-shRNA cells, HeLa1A1-MRP1-shRNA cells, HeLa1A1-MRP3-shRNA cells and HeLa1A1-MRP4-shRNA cells are detailed in our previous publication. Moreover, levels of the BCRP, MRP1, MRP3 and MRP4 proteins in these constructed HeLa1A1 cells were determined by western blotting assays, as described previously.

MRP3 = biological target: T2, MRP3 (Homo sapiens, UniProt O15438); test: shRNA-mediated MRP3 knock-down, glucuronide excretion in HeLa1A1 cells; format: cell-based; settings: DMC 4 μM; for decrease of fmet value: MRP3 partial knock-down, Fig 10E; for decrease in efflux excretion clearance / increase in intracellular level: MRP3 silencing; for decrease in efflux excretion clearance: Fig 10C; for increase in intracellular level: Fig 10D
T2 construct: BCRP, MRP1, MRP3, and MRP4 were detected in both wild-type HeLa and HeLa1A1 cells; endogenous in cells; host or cells: HeLa1A1 cells (MRP3-shRNA versus scrambled shRNA)
T2 sequence (O15438 whole entry): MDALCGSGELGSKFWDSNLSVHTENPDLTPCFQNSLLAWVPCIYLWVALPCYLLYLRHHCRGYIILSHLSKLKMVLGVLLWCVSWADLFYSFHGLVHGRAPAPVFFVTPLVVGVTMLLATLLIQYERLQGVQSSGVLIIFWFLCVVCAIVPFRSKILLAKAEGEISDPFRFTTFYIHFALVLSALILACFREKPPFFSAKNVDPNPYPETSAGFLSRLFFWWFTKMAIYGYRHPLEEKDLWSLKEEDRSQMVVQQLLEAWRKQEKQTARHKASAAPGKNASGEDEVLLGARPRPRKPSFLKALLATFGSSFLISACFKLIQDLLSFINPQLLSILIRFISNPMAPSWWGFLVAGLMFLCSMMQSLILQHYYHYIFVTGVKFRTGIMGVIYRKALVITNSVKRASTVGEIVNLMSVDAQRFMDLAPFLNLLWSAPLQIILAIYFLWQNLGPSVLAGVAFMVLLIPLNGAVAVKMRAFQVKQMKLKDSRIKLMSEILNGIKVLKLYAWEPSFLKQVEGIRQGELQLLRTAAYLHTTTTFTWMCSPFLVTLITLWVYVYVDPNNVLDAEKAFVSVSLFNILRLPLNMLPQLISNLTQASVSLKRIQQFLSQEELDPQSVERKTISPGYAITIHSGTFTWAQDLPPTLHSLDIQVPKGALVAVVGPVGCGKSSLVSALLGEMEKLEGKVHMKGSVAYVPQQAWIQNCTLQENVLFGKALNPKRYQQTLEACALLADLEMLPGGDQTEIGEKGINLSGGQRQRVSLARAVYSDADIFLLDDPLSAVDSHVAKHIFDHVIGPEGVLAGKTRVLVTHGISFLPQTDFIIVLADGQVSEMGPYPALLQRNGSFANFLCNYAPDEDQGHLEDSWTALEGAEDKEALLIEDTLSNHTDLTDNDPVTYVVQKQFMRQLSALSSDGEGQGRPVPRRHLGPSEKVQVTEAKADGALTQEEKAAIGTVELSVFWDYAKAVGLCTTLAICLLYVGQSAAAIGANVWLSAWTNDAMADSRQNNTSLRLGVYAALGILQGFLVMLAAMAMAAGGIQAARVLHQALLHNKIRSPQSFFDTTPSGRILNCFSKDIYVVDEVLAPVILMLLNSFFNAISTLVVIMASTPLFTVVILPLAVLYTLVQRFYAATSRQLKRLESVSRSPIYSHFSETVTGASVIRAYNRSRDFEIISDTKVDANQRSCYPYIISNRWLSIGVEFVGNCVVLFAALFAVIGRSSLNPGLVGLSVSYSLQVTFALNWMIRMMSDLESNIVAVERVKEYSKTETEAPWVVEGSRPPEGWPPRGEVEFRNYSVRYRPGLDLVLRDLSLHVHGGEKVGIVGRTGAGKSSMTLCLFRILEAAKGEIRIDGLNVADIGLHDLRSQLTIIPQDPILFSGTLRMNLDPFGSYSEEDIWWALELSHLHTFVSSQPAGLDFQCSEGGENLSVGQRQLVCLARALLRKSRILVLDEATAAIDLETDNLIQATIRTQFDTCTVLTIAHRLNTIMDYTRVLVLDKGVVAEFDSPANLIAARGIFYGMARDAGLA
Protocol: as §1, §2, §3

BCRP = biological target: T3, BCRP (Homo sapiens, UniProt Q9UNQ0); test: shRNA-mediated BCRP knock-down, glucuronide excretion in HeLa1A1 cells; format: cell-based; parameters: BCRP, MRP1, MRP3, and MRP4 were detected in both wild-type HeLa and HeLa1A1 cells; endogenous in cells; host or cells: HeLa1A1 cells; settings: BCRP silencing, DMC 4 μM; for reduction of efflux excretion rate: Fig 8C; for increase of intracellular level: Fig 8D; for decrease in fmet value: Fig 8E
T3 sequence (Q9UNQ0 1-655): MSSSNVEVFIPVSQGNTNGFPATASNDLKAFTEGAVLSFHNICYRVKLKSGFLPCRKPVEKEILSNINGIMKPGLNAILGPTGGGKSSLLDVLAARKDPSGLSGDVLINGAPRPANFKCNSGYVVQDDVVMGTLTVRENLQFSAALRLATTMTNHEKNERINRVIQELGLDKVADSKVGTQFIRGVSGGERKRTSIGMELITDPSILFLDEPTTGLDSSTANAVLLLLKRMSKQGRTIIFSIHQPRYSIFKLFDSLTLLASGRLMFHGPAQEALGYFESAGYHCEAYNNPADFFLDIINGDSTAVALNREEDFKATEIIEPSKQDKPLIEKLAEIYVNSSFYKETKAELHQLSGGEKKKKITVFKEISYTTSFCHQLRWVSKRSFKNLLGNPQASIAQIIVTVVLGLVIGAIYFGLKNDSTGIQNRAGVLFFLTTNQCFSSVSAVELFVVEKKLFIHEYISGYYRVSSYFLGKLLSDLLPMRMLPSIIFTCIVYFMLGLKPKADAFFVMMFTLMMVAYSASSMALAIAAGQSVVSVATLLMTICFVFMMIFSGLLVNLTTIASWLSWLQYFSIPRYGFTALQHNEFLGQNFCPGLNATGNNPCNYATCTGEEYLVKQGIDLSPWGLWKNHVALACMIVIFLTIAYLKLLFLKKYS
Protocol: as §1, §2, §3

BCRP transporter = test system: BCRP transporter; parameters: method as in PMID 12477054; settings: cited from earlier work
UGT1A1 = biological target: T4, UGT1A1 (Homo sapiens, UniProt P22309); test: Chemical inhibition of DMC-O-glucuronidation by UGT1A1 inhibitors in HeLa1A1 cell lysate; format: biochemical; parameters: expressed in transfected cells; host or cells: HeLa cells stably overexpressing UGT1A1 (HeLa1A1), used as cell lysate; settings: DMC 4 μM, HeLa1A1 cell lysate 2.3 mg/mL
T4 sequence (P22309 26-533): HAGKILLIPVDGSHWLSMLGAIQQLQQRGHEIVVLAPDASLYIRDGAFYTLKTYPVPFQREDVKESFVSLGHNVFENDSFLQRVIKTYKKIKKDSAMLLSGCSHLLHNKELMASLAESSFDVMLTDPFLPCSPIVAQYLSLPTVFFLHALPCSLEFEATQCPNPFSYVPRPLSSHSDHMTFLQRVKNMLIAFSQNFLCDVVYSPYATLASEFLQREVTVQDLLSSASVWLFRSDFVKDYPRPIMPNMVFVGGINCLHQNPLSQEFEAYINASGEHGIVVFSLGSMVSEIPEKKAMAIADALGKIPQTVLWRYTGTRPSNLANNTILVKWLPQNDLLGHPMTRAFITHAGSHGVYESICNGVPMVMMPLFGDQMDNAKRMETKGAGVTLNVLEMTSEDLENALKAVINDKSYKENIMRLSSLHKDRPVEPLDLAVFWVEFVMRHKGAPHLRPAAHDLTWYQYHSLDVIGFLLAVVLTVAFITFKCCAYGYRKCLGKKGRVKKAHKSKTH
Protocol: The glucuronidation assay was performed as previously described. Briefly, alamethicin (22 μg/mL), D-saccharic-1,4-lactone (4.4 mM), MgCl2 (0.88 mM), UGT1A1 (1.0 mg/mL) or HeLa1A1 cell lysates (2.3 mg/mL) and DMC (0.5 to 40 μM) were mixed in a 50 mM Tris buffer (pH 7.4). After a preincubation at 37°C for 5 min, UDPGA (3.5 mM) was added to the incubation system, and the mixture was further incubated. After 30 min, the reactions were terminated by the addition of ice-cold acetonitrile (200 μL). The mixed samples were centrifuged at 13,800 x g for 10 min, and the supernatant was analyzed using UHPLC.
Analyses of chemical inhibition and activity correlations were performed as two additional independent assays to determine the roles of the UGT1A1 enzyme. In these studies, nilotinib (10 μM), glycyrrhetinic acid (20 μM) and protopanaxatriol (500 μM) were used as UGT1A1 inhibitors to investigate the metabolic activities of DMC (4 μM). The incubation conditions were the same as those used for the glucuronidation activity assays.

Row | decrease of efflux excretion rate (MRP1) | decrease of metabolized fraction (MRP1) | increase in intracellular level (MRP1) | decrease of fmet value (MRP3) | decrease in efflux excretion clearance (MRP3) | increase in intracellular level (MRP3) | reduction of efflux excretion rate (BCRP) | increase of intracellular level (BCRP) | decrease in fmet value (BCRP) | Compound | further results
1 | 20.8% | 16.5% | 33.1% | 16.2% | 19.7% | 31.5% | 29.9% | 40.9% | 20.1% | COc1cc(/C=C/C(=O)CC(=O)/C=C/c2ccc(O)cc2)ccc1O[C@@H]1O[C@H](C(=O)O)[C@@H](O)[C@H](O)[C@H]1O [G1] | –
2 | 36.9% | 29.8% | 36.1% | 27.9% | 26.4% | 32.1% | 33.0% | 51.6% | 24.5% | COc1cc(/C=C/C(=O)CC(=O)/C=C/c2ccc(O[C@@H]3O[C@H](C(=O)O)[C@@H](O)[C@H](O)[C@H]3O)cc2)ccc1O [G2] | –
3 | – | – | – | – | – | – | – | – | – | COc1ccc2c3c([nH]c2c1)[C@H](CC(C)C)N1C(=O)[C@H](CCC(=O)OC(C)(C)C)NC(=O)[C@@H]1C3 [Ko143] | pIC50 (BCRP transporter): 7.64
4 | – | – | – | – | – | – | – | – | – | Cc1cn(-c2cc(NC(=O)c3ccc(C)c(Nc4nccc(-c5cccnc5)n4)c3)cc(C(F)(F)F)c2)cn1 [Nilotinib, nilotinib] | formation of G1 and G2 (UGT1A1; inhibitor 10 μM): significantly inhibited
5 | – | – | – | – | – | – | – | – | – | CC1(C)[C@@H](O)CC[C@]2(C)[C@H]3C(=O)C=C4[C@@H]5C[C@@](C)(C(=O)O)CC[C@]5(C)CC[C@@]4(C)[C@]3(C)CC[C@@H]12 [glycyrrhetinic acid] | formation of G1 and G2 (UGT1A1; inhibitor 20 μM): significantly inhibited
6 | – | – | – | – | – | – | – | – | – | CC(C)=CCC[C@](C)(O)[C@H]1CC[C@]2(C)[C@@H]1[C@H](O)C[C@@H]1[C@@]3(C)CC[C@H](O)C(C)(C)[C@@H]3[C@@H](O)C[C@]12C [protopanaxatriol] | formation of G1 and G2 (UGT1A1; inhibitor 500 μM): significantly inhibited
